# Measured values taken from patent US20120077803A1, “Uses Of NK Receptor Antagonists” (NOVARTIS AG, priority 2009, published 2012).
# Tests used:
# [1] = test system: dogs with flea allergic dermatitis; assay: Skin lesion scores (total lesion score) in dogs with flea-allergic dermatitis; format: in vivo, Beagle dogs; details: Prednisolone 10 mg/day orally
# Description: (§1) Flea-allergic laboratory Beagle dogs are infested with fleas. Fifty (50) Ctenocephalides felis fleas, 18 to 20 days old are released on the back of every dog on D1. Dogs are combed 48 hours (D3) after infestation to reduce the number of fleas (reduction of allergen charge).
# Skin observations: before flea infestations (D −1) all dogs are typically examined to establish a baseline score for erythema, papules, crusts, scales, alopecia, and excoriation. From D1, daily clinical observations are performed. Each lesion is typically graded using a scale from 0 to 3:
# 0=no signs 1=mild 2=moderate 3=severe
# (§2) Skin lesions are allowed to develop until the total lesion score reaches ˜20. The Test Compound is then given orally at 50, 150 and 300 mg/day, divided into 2 doses, for 5 days. Prednisolone (10 mg/day, orally) is used as a comparator.
# Erythema: is typically an acute clinical sign of cutaneous inflammation defined as redness of the skin caused by capillary congestion which can be aggravated by scratching. Excoriation: is typically a punctuate or linear abrasion produced by mechanical means, usually involving only the epidermis but not uncommonly reaching the papillary dermis. […] Papule: is typically a circumscribed, solid elevation with no visible fluid, varying in size from a pinhead to 1 cm. […], formed when there is a high break in the follicle wall. In the presence of bacteria, papules become pustules. Crusts: are typically dried serum, pus, or blood usually mixed with epithelial and sometimes bacterial debris. Scales: are dry or greasy laminated masses of keratin.
# (§3) Lesion scores and Actical™ measurement values are typically observed on the following days: • Pre-value: before challenge with fleas • the day of challenge with fleas (Actical™ measurements only); • D1: the day when the total lesion score reached a sufficiently high value (average lesion score 20) and treatment of the animal started. • D2 to D6,
# (§4) In the treatment group, lesion scores were taken from 8 dogs. Actical™ measurements were also taken from 6 of these dogs.
# • Erythema*, • Excoriations*, • Papules/pustules • Self induced alopecia^o, and • Scales, • Erythema and excoriations are related to pruritus • Self induced alopecia is also related to pruritus but the improvement is […] after several weeks of treatment.
# Day 1 of treatment when dogs reached a sufficient lesion score to initiate treatment (average 20). Pre-values (baseline).
# [2] = test system: dogs with flea allergic dermatitis; assay: Pruritus intensity by Actical activity monitors in flea allergic dogs; format: in vivo, Beagle dogs; details: Prednisolone 10 mg/day orally; for Actical day, mean (standard deviation): 6am-6pm; for Actical night, mean (standard deviation): 6pm-6am
# Description: as §1
# Pruritus intensity: Pruritus intensity is evaluated using activity monitors (Actical™: Actiwatch™; Cambridge Neuorotechnology Ltd, Papworth Everard, UK) according to Nuttall and McEwan. (Nuttal T and McEwan N, “Objective measurement of pruritus in dogs: a preliminary study using activity monitors”. ESVD, 2006, 17 348-351). The physical activity monitors, mounted on collars, are placed around the dog's neck and tightened to the extent that they more with the skin but not so that they compress the underlying tissues. They were put on the dogs on D −5. […] This typically allows to see the difference in activity when the dogs have fleas and are developing pruritic and inflammatory lesions (i.e. dermatitis) and then again their activity during treatment with either the Test Compound or Prednisolone. The activity monitors are typically removed at the end of each phase on D12. Activity monitors measure the movement average within 15 seconds,
# as §2, §3, §4
structure (smiles),measurement,setting,value
"C[C@]12C=CC(=O)C=C1CC[C@@H]1[C@@H]2[C@@H](O)C[C@@]2(C)[C@H]1CC[C@]2(O)C(=O)CO [Prednisolone, reference compound]","Total score ctb (total lesion score compared to baseline), mean (standard deviation)",[1]; day 2,−5.6 (6.3)
same,"Total score ctb (total lesion score compared to baseline), mean (standard deviation)",[1]; day 3,−7.9 (6.7)
same,"Total score ctb (total lesion score compared to baseline), mean (standard deviation)",[1]; day 4,−9.2 (6.3)
same,"Total score ctb (total lesion score compared to baseline), mean (standard deviation)",[1]; day 5,−9.9 (4.8)
same,"Total score ctb (total lesion score compared to baseline), mean (standard deviation)",[1]; day 6,−11.8 (6.1)
same,"Actical day, mean (standard deviation)",[2]; day 1 (treatment start),74 (20) Average activity counts every 15 secs
same,"Actical day, mean (standard deviation)",[2]; day 2,66 (50) Average activity counts every 15 secs
same,"Actical day, mean (standard deviation)",[2]; day 3,49 (33) Average activity counts every 15 secs
same,"Actical day, mean (standard deviation)",[2]; day 4,54 (22) Average activity counts every 15 secs
same,"Actical day, mean (standard deviation)",[2]; day 5,47 (24) Average activity counts every 15 secs
same,"Actical day, mean (standard deviation)",[2]; day 6,41 (14) Average activity counts every 15 secs
same,"Actical day, mean (standard deviation)",[2]; fleas (day of challenge),74 (22) Average activity counts every 15 secs
same,"Actical day, mean (standard deviation)",[2]; pre (before exposure to fleas),40 (10) Average activity counts every 15 secs
same,"Actical night, mean (standard deviation)",[2]; Fleas (day of challenge),8.6 (3.5) Average activity counts every 15 secs
same,"Actical night, mean (standard deviation)",[2]; Pre (before exposure to fleas),7.9 (4.4) Average activity counts every 15 secs
same,"Actical night, mean (standard deviation)",[2]; day 1 (treatment start),16.2 (2.9) Average activity counts every 15 secs
same,"Actical night, mean (standard deviation)",[2]; day 2,6.8 (4.1) Average activity counts every 15 secs
same,"Actical night, mean (standard deviation)",[2]; day 3,5.1 (2.8) Average activity counts every 15 secs
same,"Actical night, mean (standard deviation)",[2]; day 4,7.3 (3.3) Average activity counts every 15 secs
same,"Actical night, mean (standard deviation)",[2]; day 5,4.8 (2.2) Average activity counts every 15 secs
same,"Actical night, mean (standard deviation)",[2]; day 6,5.3 (1.7) Average activity counts every 15 secs
